Reference: patent US20240246946A1, “MODULATORS OF TREX1” (Constellation Pharmaceuticals, Inc., priority 2021, published 2024)
pIC50: −log10 of the molar value.

Columns and labels:
full length human TREX1 = biological target: T1, full length human TREX1 (Homo sapiens, UniProt Q9NSU2); experiment: hTREX1 Biochemical Assay (fluorescence, dsDNA substrate degradation); details: biochemical, read-out: hTREX1 IC50
T1 construct: N-terminally His-Tev tagged full length human TREX1; made in house; host or cells: E. coli
T1 sequence (Q9NSU2 1-314): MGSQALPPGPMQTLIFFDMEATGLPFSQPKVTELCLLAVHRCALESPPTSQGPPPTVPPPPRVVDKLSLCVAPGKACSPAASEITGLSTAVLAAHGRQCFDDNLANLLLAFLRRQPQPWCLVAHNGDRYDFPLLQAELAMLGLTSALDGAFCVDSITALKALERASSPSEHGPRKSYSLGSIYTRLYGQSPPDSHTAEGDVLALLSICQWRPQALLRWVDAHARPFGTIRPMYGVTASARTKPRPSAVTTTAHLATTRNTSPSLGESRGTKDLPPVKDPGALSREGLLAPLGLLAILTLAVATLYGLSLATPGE
In short: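 Fluorescence rises as enzyme degrades a quenched TEX615-labelled dsDNA substrate (60 nM) in 50 mM Tris, 150 mM NaCl, 5 mM MgCl2, pH 7.4. Full-length His-Tev-tagged human TREX1, 4 pM, sits with compound 4 hours at 25° C before substrate; reaction 18 hours, stopped with EDTA.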

full length mouse TREX1 = biological target: T2, full length mouse TREX1 (Mus musculus, UniProt Q91XB0); experiment: mTREX1 Biochemical Assay (fluorescence, dsDNA substrate degradation); details: biochemical, read-out: mTREX1 IC50
T2 construct: N-terminally His-Tev tagged full length mouse TREX1; made in house; host or cells: E. coli
T2 sequence (Q91XB0 1-314): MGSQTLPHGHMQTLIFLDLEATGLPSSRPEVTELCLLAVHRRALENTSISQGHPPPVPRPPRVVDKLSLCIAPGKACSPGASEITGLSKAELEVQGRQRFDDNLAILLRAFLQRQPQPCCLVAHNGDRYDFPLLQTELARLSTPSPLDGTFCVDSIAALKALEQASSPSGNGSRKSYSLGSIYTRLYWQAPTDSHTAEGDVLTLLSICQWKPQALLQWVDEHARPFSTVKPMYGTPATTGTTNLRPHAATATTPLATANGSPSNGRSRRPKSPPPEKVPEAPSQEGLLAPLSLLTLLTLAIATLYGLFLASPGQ
In short: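 Reaction run 18 h at 25° C. with 60 nM TEX615/quencher-labelled dsDNA and 6 pM mouse TREX1 in Tris buffer (pH 7.4, 5 mM MgCl2, 1.0% DMSO), enzyme having sat 4 h with compound across 10 concentrations. EDTA quench; substrate degradation measured as fluorescence increase.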

[1] = biological target: T3, human TREX2 (residues M44-A279) (Homo sapiens, UniProt Q9BQ50); experiment: hTREX2 Biochemical Assay (fluorescence, dsDNA substrate degradation); details: biochemical selectivity for hTREX1 vs hTREX2
T3 construct: human TREX2 (residues M44-A279, expressed in E. coli); made in house; host or cells: E. coli
T3 sequence (Q9BQ50 44-279 isoform Q9BQ50-1): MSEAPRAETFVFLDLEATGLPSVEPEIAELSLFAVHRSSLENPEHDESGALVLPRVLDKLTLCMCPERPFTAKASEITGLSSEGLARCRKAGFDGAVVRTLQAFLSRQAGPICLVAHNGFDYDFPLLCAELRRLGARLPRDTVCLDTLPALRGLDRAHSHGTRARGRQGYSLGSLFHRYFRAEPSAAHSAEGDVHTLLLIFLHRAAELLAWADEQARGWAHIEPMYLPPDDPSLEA
In short: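 Fluorogenic dsDNA degradation read at 615 nm (570 nm excitation) after EDTA quench. Final 60 nM substrate, 50 pM His-Tev-tagged enzyme, 5 mM MgCl2, pH 7.4, 1.0% DMSO; 4 h compound–enzyme preincubation then 18 h reaction, both 25 °C; 10-point titration.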

hTREX1 = biological target: T4, hTREX1 (Homo sapiens, UniProt Q9NSU2); experiment: hTREX1 HCT116 Cell Assay (HCT116 dual cells, Lucia luciferase reporter of Type I interferon induction); assay type: cell-based; details: TREX1i 4 h before pBR322/BstNI transfection, read after 48 h
T4 construct: host or cells: HCT116 dual cells
T4 sequence (Q9NSU2 1-314): T1 sequence (Q9NSU2 1-314)
In short: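 Type I interferon induction read as secreted Lucia luciferase 48 h after transfecting pBR322/BstNI digest (1 ug/mL, 100 ng/well) into HCT116 dual reporter cells. Compound added 4 h before transfection at up to 0.1% DMSO; cells in DMEM/10% FBS/25 mM HEPES at 37 °C.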

Compound | pIC50 (full length human TREX1) | pIC50 (full length mouse TREX1) | hTREX1 vs hTREX2 selectivity [1] | pIC50 (hTREX1)
Cc1n[nH]c(C)c1C(c1ccccc1C#N)C(C)c1nc(C(=O)Nc2cnoc2)c(O)c(=O)n1C (single isomer, unassigned) [Example 95 D1E2] | < 8.00 | < 8.00 | A (A = <25 fold selective for hTREX1) | < 7.00
CC(c1nc(C(=O)Nc2cnoc2)c(O)c(=O)n1C)C(c1ccccc1Cl)c1cnn(C)c1C#N (single isomer, unassigned) [Example 96 D1E1] | > 9.00 | 8.00 to 9.00 | A (A = <25 fold selective for hTREX1) | < 7.00
CC(c1nc(C(=O)Nc2cnoc2)c(O)c(=O)n1C)C(c1ccccc1Cl)c1cnn(C)c1C#N (single isomer, unassigned) [Example 96 D2E2] | > 9.00 | 8.00 to 9.00 | C (C = >50 fold selective for hTREX1) | > 8.00
COCCn1cc(C(c2cc(F)ccc2Cl)C(C)c2nc(C(=O)Nc3cnoc3)c(O)c(=O)n2C)cn1 (single isomer, unassigned) [Example 97 D1E1] | 8.00 to 9.00 | 8.00 to 9.00 | C (C = >50 fold selective for hTREX1) | < 7.00
CC(c1nc(C(=O)Nc2cnoc2)c(O)c(=O)n1C)C(c1cnn(CCOC(F)(F)F)c1)c1cc(F)ccc1Cl (single isomer, unassigned) [Example 98 D1E1] | 8.00 to 9.00 | 8.00 to 9.00 | B (B = 25 to 50-fold selective for hTREX1) | < 7.00
CC(c1nc(C(=O)Nc2cnoc2)c(O)c(=O)n1C)C(c1cnn(CC(C)(C)C#N)c1)c1cc(F)ccc1Cl (single isomer, unassigned) [Example 99 D1E1] | 8.00 to 9.00 | < 8.00 | A (A = <25 fold selective for hTREX1) | < 7.00
CC(c1nc(C(=O)Nc2cnoc2)c(O)c(=O)n1C)C(c1cnn(C(C)(C)CC#N)c1)c1cc(F)ccc1Cl (single isomer, unassigned) [Example 100 D1E1] | 8.00 to 9.00 | 8.00 to 9.00 | A (A = <25 fold selective for hTREX1) | < 7.00
CC(c1nc(C(=O)Nc2cnoc2)c(O)c(=O)n1C)C(c1cnn(CCOC(F)(F)F)c1)c1cc(F)ccc1C#N (single isomer, unassigned) [Example 101 D1E2] | > 9.00 | 8.00 to 9.00 | C (C = >50 fold selective for hTREX1) | 7.00 to 8.00
CC(c1nc(C(=O)Nc2cnoc2)c(O)c(=O)n1C)C(c1cnn(CC(F)F)c1)c1cc(F)ccc1C#N (single isomer, unassigned) [Example 102 D1E2] | > 9.00 | 8.00 to 9.00 | B (B = 25 to 50-fold selective for hTREX1) | 7.00 to 8.00
COCCn1cc(C(c2cc(F)ccc2C#N)C(C)c2nc(C(=O)Nc3cnoc3)c(O)c(=O)n2C)c(C)n1 (single isomer, unassigned) [Example 103 D1E1] | < 8.00 | < 8.00 | A (A = <25 fold selective for hTREX1) | < 7.00
COCCn1cc(C(c2cc(F)ccc2C#N)C(C)c2nc(C(=O)Nc3cnoc3)c(O)c(=O)n2C)c(C)n1 (single isomer, unassigned) [Example 103 D1E2] | > 9.00 | > 9.00 | C (C = >50 fold selective for hTREX1) | 7.00 to 8.00
COCCn1cc(C(c2cc(F)ccc2C#N)C(C)c2nc(C(=O)Nc3cnoc3)c(O)c(=O)n2C)c(C)n1 (single isomer, unassigned) [Example 103 D2E1] | 8.00 to 9.00 | < 8.00 | A (A = <25 fold selective for hTREX1) | < 7.00
COCCn1ncc(C(c2cc(F)ccc2C#N)C(C)c2nc(C(=O)Nc3cnoc3)c(O)c(=O)n2C)c1C (single isomer, unassigned) [Example 104 D1E1] | 8.00 to 9.00 | 8.00 to 9.00 | B (B = 25 to 50-fold selective for hTREX1) | < 7.00
